Results as given in US5026836A, “6-sulfenamide, 6-sulfinamide and 6-sulfonamide purines, purine nucleosides, purine nucleotides, pharmaceutical compositions, and processes of making” (priority 1988, dated 1991).
Where “and” joins values, the source holds several entries; their conditions need not be identical. Equal values may be shown once. Entries after “also recorded” stand apart in the source; their conditions may differ.

Columns and labels:
[1] = test system: B-16 melanoma; experiment: Activity against B-16 melanoma; conditions: in vivo
[2] = test system: L1210 cells; experiment: Bioassay of viable L1210 cells in brain after intracranial inoculation and ip drug; type: in vivo, mouse; conditions: for crossing of blood brain barrier / CNS penetration (words): mouse, in vivo
From the text: BDF1 mice were inoculated intracranially on day 0 with 1×10^5 L1210 cells. […] 24 hr after drug delivery the brains were collected, homogenized, and injected ip into untreated mice. Each mouse received the equivalent of half a brain. Thereafter, life span was monitored and, using inoculum-response data as a base of comparison, estimates were made of the numbers of viable cells in treated and control brains.

[3] = test system: L1210/5FU cells; experiment: 5-Fluorouracil resistant L1210 cells surviving treatment; type: in vivo, mouse
Method: (§1) In Examples G through K Compound 19 was tested against L1210 cell lines which had developed resistance to other known cancer chemotherapeutic agents.
In Example J, the results of which are shown in Table 10 below, Compound 19 was tested against 5-Fluorouracil resistant cells.

[4] = test system: L1210/MTX cells; experiment: Methotrexate resistant L1210 cells surviving treatment; type: in vivo, mouse
Method: In Example I Compound 19 was tested against Methotrexate resistant L1210 cells.

[5] = test system: L1210 cells; experiment: L1210 cells surviving treatment (% of original inoculum); type: in vivo, mouse
From the text: Values below 25% are considered capable of producing effective therapy, those below 10% are considered good and those below 5% are considered very good. This expresses the percent of the cells which survived treatment based upon the original cells in the inoculum. Those tests expressed as increases in life span (% ILS) indicate the increased life span of the drug treated group compared to a control group.
As an indicator of reproducible activity, compounds of the invention and other known cancer chemotherapeutic agents were screened against L1210 lymphoid leukemia in vivo utilizing the mouse as a test species. Normal NCI protocols for this test require 10^5 seed cells of the L1210 cell line. However for the purposes of tests with the L1210 cell line in testing the compounds of the invention for antitumor activity, a log greater, i.e. 10^6 cells were utilized.
Tables 2-a and 2-b illustrate a dose response for Compound 19 against L1210 inoculated mice expressed as both increased life span compared to control and as the number of cells of the original inoculum surviving drug treatment. As is evident from the various regimens of drug treatment shown in Tables 2-a and 2-b, effective therapeutic effects are noted and a dose response to Compound 19 is evident. […] Cytosine Arabinoside must be given every three hours. Test results are given utilizing standard protocols based on mean survival time and are expressed as T/C percentages (treated animals/control animals).

[6] = Toxicity / maximum tolerated dosage in mice; type: in vivo
Method: In Example N other compounds of the invention were tested against L1210 cells. […] Activity in Table 14-a is tabulated as both increases in life span and as cells surviving treatment and that in table 14-b as T/C.

[7] = test system: L1210/6MP, 6TG, 6TGR cells; experiment: L1210/6MP, 6TG, 6TGR cells surviving treatment; type: in vivo, mouse; conditions: for RCP (Residual Cell Population): L1210/6MP,6TG
Method: In Example G Compound 19 was tested against both L1210 cells and L1210 cells which were resistant to 6-Mercaptopurine, 6-Thioguanine and 6-Thioguanosine. […] As was noted above, drugs in the 6-Mercaptopurine family are presently among the drugs of choice for treatment of leukemia.

[8] = test system: L1210/Compound 18 cells; experiment: Compound 18 resistant L1210 cells surviving treatment; type: in vivo, mouse
Method: as §1
In Example K, the results of which are shown in Table 11 below, Compound 19 was tested against drug resistant cell lines developed against Compound 18. […]

[9] = test system: Lewis lung carcinoma; experiment: Activity against Lewis lung carcinoma; conditions: in vivo
[10] = ip 37 mg/kg/inj, bid days 1,3,5,7
[11] = ip 62 mg/kg/inj, bid days 1,4,7

Nc1nc([S+](N)[O-])c2ncn([C@@H]3O[C@H](CO)[C@@H](O)[C@H]3O)c2n1 (mixture of isomers) [Compound 19, 2-amino-9-β-D-ribofuranosyl-9H-purine-6-sulfinamide]
activity against B-16 melanoma [1]: No activity | Residual cells (% of control brain) ([2]; 24 hr after single ip dose (mg/kg): Methotrexate 12, Adriamycin 3, 6-Mercaptopurine 160, Cytosine Arabinoside 1200, Cyclophosphamide 140, Compound 19 173, Tiazofurin 1200, BCNU 20): 7.9% | intracranial activity ([2]; intracranial L1210): significant reduction in the number of neoplastic cells in the brain; also recorded: active intracranially | cell/half brain day 2, cell number ([2]; ip 173 mg/kg day 1): 261016 cell/half brain | cell/half brain day 2, log10 ([2]; ip 173 mg/kg day 1): 5.42 log10 | change due to drug, cells ([2]; ip 173 mg/kg day 1, vs control): -92.08% | change due to drug, log10 ([2]; ip 173 mg/kg day 1, vs control): -1.10 log10 | crossing of blood brain barrier / CNS penetration (words) [2]: effectively cross the blood brain barrier | crossing of blood brain barrier / CNS penetration (words) ([2]; listed as 2-amino-9-β-D-ribofuranosyl-9H-purine-6-sulfinamide): able to penetrate the central nervous system; also recorded: penetrating the central nervous system | L1210/5FU cells surviving (% of day zero inoculum) ([3]; ip 62 mg/kg/day, qd days 1-7): 933% | L1210/5FU cells surviving (% of day zero inoculum) ([3]; ip 104 mg/kg/day, qd days 1,3,5,7): 525% | L1210/5FU cells surviving (% of day zero inoculum) ([3]; ip 104 mg/kg/day, qd days 1-7): 3% | L1210/5FU cells surviving (% of day zero inoculum) ([3]; ip 173 mg/kg/day, qd days 1,3,5,7): 13% | activity against 5-Fluorouracil resistant cells ([3]; large dosages): highly active against these resistant cells | activity against Methotrexate resistant cells ([4]; depending on dose level and regimen): activity can be seen against these Methotrexate resistant cells | L1210/MTX cells surviving (% of day zero inoculum) ([4]; ip 104 mg/kg/day, qd days 1,4,7): 238.4% | L1210/MTX cells surviving (% of day zero inoculum) ([4]; ip 173 mg/kg/day, qd day 1): 1.6% | L1210/MTX cells surviving (% of day zero inoculum) ([4]; ip 173 mg/kg/day, qd days 1,4,7): 33.8% | L1210 cells surviving day 7 treatment (% of original inoculum) ([5]; 22 mg/kg, bid days 1,3,5,7): 594% | L1210 cells surviving day 7 treatment (% of original inoculum) ([5]; 22 mg/kg, bid days 1,4,7): 9211% | L1210 cells surviving day 7 treatment (% of original inoculum) ([5]; 22 mg/kg, bid days 1-7): 343% | L1210 cells surviving day 7 treatment (% of original inoculum) ([5]; 37 mg/kg, bid days 1,3,5,7): 17% | L1210 cells surviving day 7 treatment (% of original inoculum) ([5]; 37 mg/kg, bid days 1,4,7): 87% | L1210 cells surviving day 7 treatment (% of original inoculum) ([5]; 37 mg/kg, bid days 1-7): 22% | L1210 cells surviving day 7 treatment (% of original inoculum) ([5]; 37 mg/kg, qd days 1,3,5,7): 3077% | L1210 cells surviving day 7 treatment (% of original inoculum) ([5]; 37 mg/kg, qd days 1,4,7): 15936% | L1210 cells surviving day 7 treatment (% of original inoculum) ([5]; 37 mg/kg, qd days 1-7): 115% | L1210 cells surviving day 7 treatment (% of original inoculum) ([5]; 62 mg/kg, bid days 1,3,5,7): 0.3% | L1210 cells surviving day 7 treatment (% of original inoculum) ([5]; 62 mg/kg, bid days 1,4,7): 5.6% | L1210 cells surviving day 7 treatment (% of original inoculum) ([5]; 62 mg/kg, qd days 1,3,5,7): 50% | L1210 cells surviving day 7 treatment (% of original inoculum) ([5]; 62 mg/kg, qd days 1,4,7): 594% | L1210 cells surviving treatment (% of original inoculum) ([5]; 62 mg/kg, qd days 1-7): 13% | L1210 cells surviving treatment (% of original inoculum) ([5]; 104 mg/kg, qd days 1,3,5,7): 17% | L1210 cells surviving treatment (% of original inoculum) ([5]; 104 mg/kg, qd days 1,4,7): 29% | L1210 cells surviving treatment (% of original inoculum) ([5]; 173 mg/kg, qd days 1,3,5,7): 0.2% | L1210 cells surviving treatment (% of original inoculum) ([5]; 173 mg/kg, qd days 1,4,7): 1.1% | RCP (Residual Cell Population) [5, 10]: .32 | L1210 cells surviving (% of day zero inoculum) ([5]; ip 62 mg/kg, bid day 1): 0.8% | L1210 cells surviving (% of day zero inoculum) ([5]; ip 62 mg/kg, qd day 1, 62 mg/kg): 0.8% and 8.5% | L1210 cells surviving (% of day zero inoculum) ([5]; ip 62 mg/kg, tid day 1): 0.4% | RCP (Residual Cell Population) [5, 11]: .14 | L1210 cells surviving (% of day zero inoculum) ([5]; ip 104 mg/kg, qd day 1): 5.4% | L1210 cells surviving treatment (% of day zero inoculum) ([5]; ip 104 mg/kg/day, qd days 1-7, 1 long term survivor not included): 0.04% | L1210 cells surviving (% of day zero inoculum) ([5]; ip 173 mg/kg, qd day 1): 1.4% | RCP (Residual Cell Population) ([5]; oral 37 mg/kg/inj, bid days 1,3,5,7): 3.73 | RCP (Residual Cell Population) ([5]; oral 62 mg/kg/inj, bid days 1,4,7): 8.48 | mice which died from drug toxicity ([6]; ip 104 mg/kg/inj, bid days 1,4,7, L1210-inoculated BDF1 mice): 1 | toxicity (T/C column) ([6]; ip 288 mg/kg, qd day 1, L1210-inoculated BDF1 mice): TOX | mortality ([6]; mouse, in vivo, 104 mg/kg, bid days 1,4,7, L1210-inoculated mice, read-out: toxic deaths per number of animals in test group (converted)): 20% | RCP (Residual Cell Population) [7, 10]: .28 | RCP (Residual Cell Population) [7, 11]: .09 | L1210/6MP, 6TG, 6TGR cells surviving (% of day zero inoculum) ([7]; ip 62 mg/kg, bid day 1): 15.9% | L1210/6MP, 6TG, 6TGR cells surviving (% of day zero inoculum) ([7]; ip 62 mg/kg, qd day 1): 15.9% | L1210/6MP, 6TG, 6TGR cells surviving (% of day zero inoculum) ([7]; ip 62 mg/kg, tid day 1): 15.9% | L1210/6MP, 6TG, 6TGR cells surviving (% of day zero inoculum) ([7]; ip 104 mg/kg, qd day 1): 54.5% | L1210/6MP, 6TG, 6TGR cells surviving (% of day zero inoculum) ([7]; ip 173 mg/kg, qd day 1): 4.6% | L1210/Compound 18 cells surviving (% of day zero inoculum) ([8]; ip 62 mg/kg/day, bid day 1): 27.4% | L1210/Compound 18 cells surviving (% of day zero inoculum) ([8]; ip 62 mg/kg/day, qd day 1): 100.0% | L1210/Compound 18 cells surviving (% of day zero inoculum) ([8]; ip 104 mg/kg/day, qd day 1): 17.9% | L1210/Compound 18 cells surviving (% of day zero inoculum) ([8]; ip 173 mg/kg/day, qd day 1): 7.5% | activity against Compound 18 resistant L1210 ([8]; mouse, in vivo): effective against those L1210 cell lines which have developed resistance against Compound 18; also recorded: active against cells which developed resistance to Compound 18 | activity against Lewis lung carcinoma [9]: No activity
